# Structures can show the parent of a compound that is named as a salt.
# Tested on: PRKACA-PRKAR2A interaction (SmBiT-PRKACA / LgBiT-PRKAR2A), protein kinase A
# Parameters: NanoLuc complementation counter-screen in cell extract, PRKACA with PRKAR2A, loss of luminescence, detects NanoLuc interference
# Settings: 0.5 h, 20 µM; inhibitor
row,SMILES,Inh (PKA)
1,"O=C(Oc1ccc([N+](=O)[O-])cc1)N1CCC(C(O)(c2ccc3c(c2)OCO3)c2ccc3c(c2)OCO3)CC1 [UM0142396:01, JZL184]",16.72%

# Same assay, conditions: counter-screen for NanoLuc interference, 0.5 h, 20 µM, inhibitor, Inh (PKA)
row,SMILES,Inh (PKA)
1,"O=C(O)Cc1ccccc1Nc1c(Cl)cccc1Cl [UM0142393:01, Diclofenac Diethylamine]",11.28%
2,"CCC(CC)[C@H](NC(C)=O)[C@@H]1[C@H](O)[C@@H](C(=O)O)C[C@H]1NC(=N)N [UM0142420:01, Peramivir Trihydrate]",0.7131%
3,"COc1ccc2[nH]c([S@@+]([O-])Cc3ncc(C)c(OC)c3C)nc2c1 [UM0142444:01, Esomeprazole Magnesium]",3.498%

# Further lines, results first:
row,Inh (PKA),SMILES
1,3.767%,"O=C(Cc1ccc(-c2ccc(OCCN3CCOCC3)cc2)cn1)NCc1ccccc1 [UM0142472:01, KX2-391]"
2,53.12%,"COc1cc(Nc2ncc(F)c(Nc3ccc4c(n3)N(COP(=O)(O)O)C(=O)C(C)(C)O4)n2)cc(OC)c1OC [UM0142473:01, Fostamatinib (R788)]"
3,12.17%,"Cc1cccc(-c2[nH]c(C(C)(C)C)nc2-c2ccc3c(c2)OCO3)n1 [UM0142475:01, SB505124]"
4,0.8137%,"CCOC(=O)[C@H](C)C[C@@H](Cc1ccc(-c2ccccc2)cc1)NC(=O)CCC(=O)O [UM0142501:01, AHU-377 hemicalcium salt]"

# Same assay, conditions: counter-screen for NanoLuc interference; 0.5 h, 20 µM; inhibitor
row,SMILES,Inh (PKA)
1,"CC[C@@H]1/C=C(\C)C[C@H](C)C[C@H](OC)[C@H]2O[C@@](O)(C(=O)C(=O)N3CCCC[C@H]3C(=O)O[C@H](/C(C)=C/[C@@H]3CC[C@H](Cl)[C@H](OC)C3)[C@H](C)[C@@H](O)CC1=O)[C@H](C)C[C@@H]2OC [UM0142376:01, Pimecrolimus]",0.5953%
2,"Nc1ccc2cc3ccc(N)cc3nc2c1 [UM0142377:01, Proflavine Hemisulfate]",0.7107%
3,"NC[C@H]1O[C@H](O[C@H]2[C@H](O[C@@H]3O[C@H](CO)[C@@H](O)[C@H]3O)[C@@H](O)[C@H](N)C[C@@H]2N)[C@H](N)[C@@H](O)[C@@H]1O [UM0142378:01, Ribostamycin Sulfate]",35.19%
4,"Cc1ccc(C(=O)C(C)CN2CCCCC2)cc1 (stereo not drawn) [UM0142383:01, Tolperisone HCl]",-1.099%
5,"NC[C@H]1CC[C@H](C(=O)O)CC1 [UM0142384:01, Tranexamic Acid]",2.588%
6,"CCC[S+]([O-])c1ccc2[nH]c(NC(=O)OC)nc2c1 (stereo not drawn) [UM0142387:01, Albendazole Oxide]",2.774%
7,"C=CCNC(N)=S [UM0142388:01, Allylthiourea]",3.519%
8,"Oc1ccc(OC2CCCCO2)cc1 (stereo not drawn) [UM0142392:01, Deoxyarbutin]",1.229%
9,"C[C@]12CC[C@@H]3c4ccc(OC(=O)c5ccccc5)cc4CC[C@H]3[C@@H]1CC[C@@H]2O [UM0142395:01, Estradiol Benzoate]",19.47%
10,"CN(C)C(=N)NC(=N)N [UM0142397:01, Metformin HCl]",1.975%
11,"O=C(NC(Cc1cc(=O)[nH]c2ccccc12)C(=O)O)c1ccc(Cl)cc1 (stereo not drawn) [UM0142401:01, Rebamipide]",2.079%
12,"C=C[C@]1(C)C[C@@H](OC(=O)CS[C@@H]2C[C@H]3CC[C@@H](C2)N3C)[C@]2(C)[C@H](C)CC[C@]3(CCC(=O)[C@H]32)[C@@H](C)[C@@H]1O [UM0142402:01, Retapamulin]",4.258%
13,"CCCN1CCCC[C@H]1C(=O)Nc1c(C)cccc1C [UM0142404:01, Ropivacaine HCl]",0.01917%
14,"Cc1ccc(S(=O)(=O)Cc2nc(-c3ccc(C(=O)NCc4cccnc4)cc3)oc2C)cc1 [UM0142406:01, STF-118804]",1.65%
15,"CN[C@@H]1[C@H](O[C@H]2[C@H](O[C@H]3[C@H](O)[C@@H](O)[C@H](N=C(N)N)[C@@H](O)[C@@H]3N=C(N)N)O[C@@H](C)[C@]2(O)C=O)O[C@@H](CO)[C@H](O)[C@H]1O [UM0142407:01, Streptomycin sulfate]",1.585%
16,"CC1(C)[C@H](C(=O)O)N2C(=O)C[C@H]2S1(=O)=O [UM0142408:01, Sulbactam sodium]",1.508%
17,"CCN=C1N[C@@H]2[C@@H](O)[C@H](O)[C@@H](CO)O[C@@H]2S1 [UM0142409:01, Thiamet G]",-0.5508%

row,SMILES,Inh (PKA)
1,"CN(C)C(=O)COC(=O)Cc1ccc(OC(=O)c2ccc(NC(=N)N)cc2)cc1 [UM0142412:01, Camostat Mesilate]",0.7864%
2,"C=C[C@H]1CN2CC[C@H]1C[C@H]2[C@H](O)c1ccnc2ccc(OC)cc12 [UM0142415:01, Quinine HCl Dihydrate]",1.874%
3,"C=C1CC[C@H](O)C/C1=C/C=C1\CCC[C@]2(C)[C@@H]([C@H](C)CCCC(C)(C)O)CC[C@@H]12 [UM0142419:01, Calcifediol]",12.98%
4,"Cc1cccc(Nc2nc(-c3ccncc3)cs2)c1 [UM0142421:01, STF-62247]",25.96%
5,"C=C1/C(=C\C=C2/CCC[C@]3(C)[C@@H]([C@H](C)CCCC(C)C)CC[C@@H]23)C[C@@H](O)C[C@@H]1O [UM0142422:01, Alfacalcidol]",10.76%
6,"Cc1cc(OCc2nnc(SC3CCCC3)n2-c2cccnc2)ccc1-c1ccc(S(C)(=O)=O)cc1 [UM0142426:01, NMS-873]",10.54%
7,"Nc1ncnc2c1c(-c1cnc3[nH]ccc3c1)nn2C1CCCC1 [UM0142428:01, PP121]",28.88%
8,"COCCOc1ccc2c(c1)ncn2-c1ccc2cccc(N3CCC(N)CC3)c2n1 [UM0142429:01, CP-673451]",21.57%
9,"CNc1nc(-c2ccc3c(N)n[nH]c3c2)cc(N2C[C@@H](C(=O)NC3CCCCC3)CC[C@H]2C)n1 [UM0142430:01, GSK2334470]",2.681%
10,"Cc1cccc(CC(=O)N2CCc3c2ccc(-c2cn(C)c4ncnc(N)c24)c3F)n1 [UM0142431:01, GSK2656157]",-0.3115%
11,"O=C1NC(=O)/C(=C/c2ccc3nccc(-c4ccncc4)c3c2)S1 [UM0142432:01, GSK1059615]",27.08%
12,"Cc1c(CN2CCN(C(=O)[C@H](C)O)CC2)sc2c(N3CCOCC3)nc(-c3cnc(N)nc3)nc12 [UM0142435:01, GDC-0980 (RG7422)]",0.4199%
13,"Cc1c(Cn2c(C)nc3c(C(=O)O)cc(N4CCOCC4)cc32)cccc1C(F)(F)F [UM0142436:01, GSK2636771]",-0.2162%
14,"Cn1cc(C2=C(c3cn(CCCSC(=N)N)c4ccccc34)C(=O)NC2=O)c2ccccc21 [UM0142439:01, Ro 31-8220 Mesylate]",76.02%
15,"CCOC(=O)[C@H](CCc1ccccc1)N[C@H]1CS[C@H](c2cccs2)CN(CC(=O)O)C1=O [UM0142447:01, Temocapril HCl]",1.04%
16,"COCCCOc1cc(C[C@@H](C[C@H](N)[C@@H](O)C[C@H](C(=O)NCC(C)(C)C(N)=O)C(C)C)C(C)C)ccc1OC [UM0142448:01, Aliskiren Hemifumarate]",6.646%
17,"COc1cccc2c1C(=O)c1c(O)c3c(c(O)c1C2=O)C[C@@](O)(C(=O)CO)C[C@@H]3O[C@H]1C[C@H](N)[C@H](O[C@@H]2CCCCO2)[C@H](C)O1 [UM0142479:01, Pirarubicin]",33.32%

# Second part, the compound after the results:
row,Inh (PKA),SMILES
1,37.03%,"CCn1c2ccccc2c2cc(Nc3ccnc(NCCCN4CCOCC4)n3)ccc21 [UM0142449:01, EHop-016]"
2,1.207%,"Cc1cn([C@H]2C[C@H](N=[N+]=[N-])[C@@H](CO)O2)c(=O)[nH]c1=O [UM0142451:01, Zidovudine]"
3,-0.7793%,"CC(C)(C)C(=O)OCOP(=O)(COCCn1cnc2c(N)ncnc21)OCOC(=O)C(C)(C)C [UM0142452:01, Adefovir Dipivoxil]"
4,89.04%,"Cc1cc(C#N)cc(C)c1Oc1nc(Nc2ccc(C#N)cc2)nc(N)c1Br [UM0142453:01, Etravirine (TMC125)]"
5,0.5167%,"Cc1cn([C@H]2C=C[C@@H](CO)O2)c(=O)[nH]c1=O [UM0142454:01, Stavudine (d4T)]"
6,64.82%,"CC(C)CCN1c2nc(Nc3cc(F)c(O)c(F)c3)ncc2N(C)C(=O)C1C (stereo not drawn) [UM0142455:01, BI-D1870]"
7,34.33%,"CCc1cncnc1N1CCN(Cc2nc3ccc(C(F)(F)F)cc3[nH]2)CC1 [UM0142456:01, PF-4708671]"
8,-0.5355%,"CNS(=O)(=O)CCc1ccc2[nH]cc(C3CCN(C)CC3)c2c1 [UM0142462:01, Naratriptan]"
9,4.132%,"Nc1c(Br)cc(Br)cc1CN[C@H]1CC[C@H](O)CC1 [UM0142466:01, Ambroxol HCl]"
10,11.36%,"O=C1NC(=O)C(c2ccccc2)(c2ccccc2)N1 [UM0142467:01, Phenytoin]"
11,12.65%,"CCOC(=O)C1=C[C@]2(CC)CCCN3CCc4c(n1c1ccccc41)[C@@H]32 [UM0142468:01, Vinpocetine]"
12,40.39%,"COc1cc(NC(=O)c2ccc(-c3ccc(Cl)cc3)o2)cc(OC)c1 [UM0142469:01, A-803467]"
13,0.4733%,"CCCCCCCN(CC)CCCC(O)c1ccc(NS(C)(=O)=O)cc1 (stereo not drawn) [UM0142470:01, Ibutilide Fumarate]"
14,26.47%,"COc1cc(-c2cc(-c3cccc(O)c3)cnc2N)cc(OC)c1OC [UM0142474:01, K02288]"
15,19.17%,"CC[C@@]1(O)C(=O)OCc2c1cc1n(c2=O)Cc2cc3c(CN(C)C)c(O)ccc3nc2-1 [UM0142480:01, Topotecan HCl]"
16,0.3639%,"CCn1c(N)c(C(=O)NC)c(=O)c2ccc(C#C[C@@](C)(O)COC)nc21 [UM0142483:01, SAR131675]"
17,23.47%,"O=C(CSc1nc2c(c(=O)n1-c1ccccc1)SCC2)Nc1ccc(-c2ccccc2)cn1 [UM0142486:01, IWP-L6]"
18,0.7443%,"Cc1cc(-c2ncc(CC(=O)Nc3ccc(-c4cnccn4)cn3)cc2C)ccn1 [UM0142488:01, LGK-974]"
19,5.384%,"O=C(O)c1cc2cccc([N+](=O)[O-])c2[nH]1 [UM0142492:01, CRT0044876]"
20,0.417%,"NC(=S)N/N=C/c1ncccc1N [UM0142496:01, Triapine]"
21,-0.9688%,"CCCN1CCN(c2ccc(C(=O)NC3(C(=O)NCC#N)CCCCC3)cc2)CC1 [UM0142500:01, Balicatib]"

# Reference: paper PMC9995496, “A screen for MeCP2-TBL1 interaction inhibitors using a luminescence-based assay” (Scientific Reports, 2023)
